In general, IC50 refers to the concentration that gives 50% inhibition.

The target in assay [1] is T1, receptor interacting protein kinase 1 (GST-hRIPK1 (8-327)) (Homo sapiens, UniProt Q13546).
T1 construct: GST-hRIPK1 (8-327) enzyme was generated by Proteros GmbH by Baculovirus expression system
T1 sequence (Q13546 8-327): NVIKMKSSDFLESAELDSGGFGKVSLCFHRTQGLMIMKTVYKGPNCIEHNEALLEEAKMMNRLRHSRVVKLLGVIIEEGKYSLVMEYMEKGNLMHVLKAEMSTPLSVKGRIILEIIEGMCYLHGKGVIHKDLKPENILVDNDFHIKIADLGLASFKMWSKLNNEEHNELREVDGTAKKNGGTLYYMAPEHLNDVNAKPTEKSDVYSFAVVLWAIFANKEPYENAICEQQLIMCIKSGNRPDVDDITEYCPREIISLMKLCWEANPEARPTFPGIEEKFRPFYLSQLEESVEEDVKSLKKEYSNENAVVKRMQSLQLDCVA
Put plainly: ADP-Glo luminescence assay, RIPK1 autophosphorylation. To be noted: 1.5 μg/mL GST-hRIPK1 (8-327), 50 μM ATP, 3 hours at room temperature. It is filed as biochemical. As to the method: Compound potency at receptor interacting protein kinase 1 and selectivity at receptor interacting protein kinase 2 and receptor interacting protein kinase 3 was determined in autophosphorylation mode, using an ADP-Glo luminescence assay, which measures the conversion of ATP to ADP.
(§1) GST-hRIPK1 (8-327) enzyme was generated by Proteros GmbH by Baculovirus expression system. GST-hRIPK2 (1-299) and GST-hRIPK3 (1-518) enzymes were purchased from SignalChem. Test compounds were diluted in DMSO and 0.1 μL of solution was dispensed to each well of a 384-well white solid microplates. The assay buffer was 50 mM HEPES pH 7.5, 50 mM NaCl, 30 mM MgCl2. The buffer was supplemented with 0.02% CHAPS, 0.01% of Pluronic F127, 0.1 mg/mL BSA and 1 mM DTT. Only for receptor interacting protein kinase 1 5 mM MnCl2, was included in the assay buffer on the day of the experiment. The enzymatic reaction consisted of 1.5 μg/mL GST-hRIPK1 (8-327) and 50 μM ATP for receptor interacting protein kinase 1, 0.4 μg/mL GST-hRIPK2 (1-299) and 150 μM ATP, 0.4 μg/mL GST-hRIPK3 (1-518) and 15 μM ATP. 5 μL of enzyme and 5 μL of ATP were added to the plate at twice the final assay concentration and incubated at room temperature for 3 hours. Following this reaction, 10 μL of ADP-Glo reagent (Promega) was added to each well and incubated for 40 minutes at room temperature. This stops the kinase reaction and depletes any remaining ATP. 20 μL of ADP-Glo detection reagent was then added to each well and incubated at room temperature for at least 15 minutes. The detection reagent converts ADP to ATP and introduces luciferase and luciferin to detect ATP. The luminescence is then measured with the Envision (PerkinElmer) plate reader. Test compound inhibition was expressed as percent inhibition of internal assay controls. For concentration response curves, normalized data is fit and pIC50 determined using XL-fit (IDBS) for Excel. The pIC50 were averaged to determine a mean value, for a minimum of two independent experiments.
Certain compounds were tested in the following. Compound potency at receptor interacting protein kinase 1 and selectivity at receptor interacting protein kinase 2 and receptor interacting protein kinase 3 was determined in autophosphorylation mode, using an ADP-Glo luminescence assay (Berger S. B. et al. (2015) Cell Death Discovery, 1: 15009), which measures the conversion of ATP to ADP.
GST-hRIPK1 (8-327) enzyme was generated by Proteros GmbH by Baculovirus expression system.
as §1, with “Test” for “GST-hRIPK1 (8-327) enzyme was generated by Proteros GmbH by Baculovirus expression system. GST-hRIPK2 (1-299) and GST-hRIPK3 (1-518) enzymes were purchased from SignalChem. Test”, “microplate.” for “microplates.”, “comprised” for “consisted of”, “1” for “1, 0.4 μg/mL GST-hRIPK2 (1-299) and 150 μM ATP, 0.4 μg/mL GST-hRIPK3 (1-518)”, “IC50” for “pIC50”, “experiments. […]” for “experiments.”
A general note: ADP-Glo turns the ADP formed in a reaction into a luminescent signal.

Assay [2] has as its target T1, receptor interacting protein kinase 1 (GST-hRIPK1 (8-327)). Put plainly: Fluorescent Polarization Binding (FP Binding) assay. As to conditions: 10 nM GST-hRIPK1 (8-327), 5 nM fluorescent-labeled ligand, 30 min at RT. The method, boiled down: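 Displacement of 5 nM fluorescent ligand from 10 nM GST-hRIPK1 (8-327), 30 min at room temperature in pH 7.5 HEPES buffer, 1% DMSO. Fluorescence polarization read (ex 531/em 595 nm); IC50 fitted from percent inhibition and averaged over at least two independent experiments.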

For `Cn1c(C#N)ccc1C(=O)N1OCCC1c1c(F)cccc1Cl` (racemic) [Compound 3, 5-[3-(2-chloro-6-fluorophenyl)-1,2-oxazolidine-2-carbonyl]-1-methyl-1H-pyrrole-2-carbonitrile], the IC50 in assay [1] is < 1000 nM.

For the molecule `CC(C)(C)C(=O)N1OCCC1c1ccc(F)cc1` (single isomer, unassigned) [Compound 73, 1-[3-(4-Fluorophenyl)-1,2-oxazolidin-2-yl]-2,2-dimethylpropan-1-one], the concentration for half-maximal inhibition (IC50) in assay [1] and in assay [2] was < 1000 nM in each case.

In the case of `Cc1ncc([C@@H]2CCON2C(=O)C(C)(C)C)cc1F` (single isomer, unassigned) [Compound 97], the IC50 in assay [1] and in assay [2] was < 1000 nM in each case.

`Cn1cc([C@@H]2CCON2C(=O)C(C)(C)C)cn1` (single isomer, unassigned) [Compound 106]: the IC50 in assay [1] and in assay [2] was < 1000 nM in each case.

`CC(C)(C)C(=O)N1OCC[C@H]1c1cccc(F)c1` (stereo in doubt) [Compound 23, 1-[3-(3-Fluorophenyl)-1,2-oxazolidin-2-yl]-2,2-dimethylpropan-1-one]: the IC50 in assay [1] and in assay [2] was < 1000 nM each time.

As to `Cn1c(C#N)ccc1C(=O)N1OCC[C@H]1c1ccccc1` [Compound 1, 1-Methyl-5-[(3S)-3-phenyl-1,2-oxazolidine-2-carbonyl]-1H-pyrrole-2-carbonitrile], the IC50 in assay [1] and in assay [2] was < 1000 nM throughout.

Turning to `CC(C)(C)C(=O)N1OCC[C@H]1c1ccccc1` [Compound 2, 2,2-dimethyl-1-[(3S)-3-phenyl-1,2-oxazolidin-2-yl]propan-1-one], the IC50 in assay [1] and in assay [2] was < 1000 nM in each case.

Consider `CC(C)(C)NC(=O)N1OCC[C@H]1c1ccccc1` [Compound 5, (3S)—N-tert-Butyl-3-phenyl-1,2-oxazolidine-2-carboxamide], for which the half-maximal inhibitory concentration (IC50) in assay [1] lay in the range of 1000 to 10000 nM.

Consider `CN(C)C(=O)N1OCC[C@H]1c1ccccc1` [Compound 6, (3S)—N,N-dimethyl-3-phenyl-1,2-oxazolidine-2-carboxamide], for which, in assay [1], the IC50 was 1000 to 10000 nM.

For `O=C(N1CCCC1)N1OCC[C@H]1c1ccccc1` [Compound 7, (3S)-3-phenyl-2-(pyrrolidine-1-carbonyl)-1,2-oxazolidine], the IC50 in assay [1] fell in the range of 1000 to 10000 nM.

In the case of `O=C(CO)N1OCC[C@H]1c1ccccc1` [Compound 9, 2-hydroxy-1-[(3S)-3-phenyl-1,2-oxazolidin-2-yl]ethan-1-one], the concentration for half-maximal inhibition (IC50) in assay [1] is > 10000 nM.

Regarding `O=C(N1OCC[C@H]1c1ccccc1)C1(O)CC1` [Compound 10, 1-[(3S)-3-Phenyl-1,2-oxazolidine-2-carbonyl]cyclopropan-1-ol], in assay [1], the IC50 was > 10000 nM.

Consider `O=C(C1COC1)N1OCC[C@H]1c1ccccc1` [Compound 11, (3S)-2-(Oxetane-3-carbonyl)-3-phenyl-1,2-oxazolidine], for which, in assay [1], the IC50 lay in the range of 1000 to 10000 nM.

With `COCC(=O)N1OCC[C@H]1c1ccccc1` [Compound 13, 2-Methoxy-1-[(3S)-3-phenyl-1,2-oxazolidin-2-yl]ethan-1-one], the IC50 in assay [1] lay within 1000 to 10000 nM.

For `C[C@@H](O)C(=O)N1OCC[C@H]1c1ccccc1` [Compound 14, (2R)-2-Hydroxy-1-[(3S)-3-phenyl-1,2-oxazolidin-2-yl]propan-1-one], the IC50 in assay [1] is > 10000 nM.

As for `CC(C)(C)OC(=O)N1OCC[C@H]1c1ccccc1` [Compound 22, tert-Butyl (3S)-3-phenyl-1,2-oxazolidine-2-carboxylate], the IC50 in assay [1] is 1000 to 10000 nM.

As for `CC(C)(C)OC(=O)N1OCCC1c1ccccc1` (stereo not shown) [Compound 83, tert-butyl 3-phenylisoxazolidine-2-carboxylate], in assay [1], the IC50 lay within 1000 to 10000 nM.

Consider `CC(C)(C)C(=O)N1OCC[C@@H]1c1ccccc1` [Compound 84, (R)-2,2-dimethyl-1-(3-phenylisoxazolidin-2-yl)propan-1-one], for which the IC50 in assay [1] is > 10000 nM.

Consider `Cn1c(C#N)ccc1C(=O)N1OCC[C@@H]1c1ccccc1` [Compound 85, (R)-1-methyl-5-(3-phenylisoxazolidine-2-carbonyl)-1H-pyrrole-2-carbonitrile], for which the IC50 in assay [1] was > 10000 nM.

Source of the values: patent publication US10709692B2, “Isoxazolidine derived inhibitors of receptor interacting protein kinase 1 (RIPK1)” (Denali Therapeutics Inc., priority 2015, dated 2020).
